11 compounds from patent US20240199676A1, “ANTIVIRAL COMPOUNDS AND METHODS OF MAKING AND USING THE SAME” (Gilead Sciences, Inc., priority 2022, published 2024) can be followed below.

Series [1] can be described thus: GI S9 stability (Ex. Z), rat intestinal S9. Particulars: pooled intestinal S9 fractions; rat intestinal S9, 1.0 mg/mL protein, 2 μM substrate, pH 7.4; read-out: GIS9 Rat T½ (per Ex. Z). It counts as in vitro ADME. The gist of the method: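 Pooled intestinal S9 at 1.0 mg/mL protein in PBS, pH 7.4, with substrate at 2 μM final, sampled at 0–120 min and quenched in methanol/acetonitrile containing labetalol. Remaining parent quantified by LC-MS peak area ratio. Half-life from first-order exponential decline fit.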

Series [2] in a line: GI S9 stability (Ex. Z), human intestinal S9. It counts as in vitro ADME. The note with it: pooled intestinal S9 fractions; human intestinal S9, 1.0 mg/mL protein, 2 μM substrate, pH 7.4; read-out: GIS9 Human T½ (per Ex. Z). How it is done:
Example Z: GI S9 stability data:
Stock solutions of test compounds in dimethyl sulfoxide (DMSO) having a final concentration of 10 mM were prepared and used in all experiments. Sekisui XenoTech (Kansas City, KS) provided pooled intestinal S9 fractions. All other chemicals were purchased from Sigma-Aldrich (St. Louis, MO) or VWR (West Chester, PA). Internal Standard/Quench (IS/Q) used to stop reactions was 100 nM labetalol in (by volume) methanol (10%) and acetonitrile (90%).
Stability in Intestinal S9 Fractions: Duplicate aliquots of test compound or positive control substrate were added to S9 stock diluted with phosphate buffered saline (137 mM NaCl, 2.7 mM KCl, 10 mM phosphate buffer), pH 7.4, to obtain a protein concentration of 1.0 mg/mL. The metabolic reactions were initiated by the addition of the substrates to the S9 reaction mixture to a final concentration of 2 μM. At 0, 10, 20, 30, 60 and 120 min, 25 μL aliquots of the reaction mixture were transferred to plates containing 225 μl of IS/Q solution. After quenching, the plates were centrifuged at 3000×g for 30 minutes. 150 μL aliquots of each supernatant were dried down then reconstituted with 300 μL water. Aliquots (10 μL) of the prepared samples were analyzed on a Thermo Q-Exactive mass spectrometer as described below.
Liquid Chromatography—Mass Spectrometry: Quantification of test compounds and control substrate was performed by analyte/internal standard peak area ratio (PAR) values measured on a Thermo Q-Exactive mass spectrometer coupled to a Dionex UltiMate 3000 HPLC with a Leap Technologies HTC PAL autosampler. The column used for analysis was a Waters Acquity BEH C18 (1.7 μm particle size, 2.1×50 mm). Mobile phase A consisted of 0.1% (v/v) formic acid in water. Mobile phase B consisted of 0.1% (v/v) formic acid in acetonitrile. Elution of analytes was achieved by a series of linear gradients varying the proportions of A and B. The mass spectrometer was calibrated on a weekly basis and mass tolerance of 5 ppm was used.
Metabolic stabilities in S9 fractions were determined by measuring the rates of disappearance of test compound and positive control substrate.
Data (% of substrate remaining) were plotted on a semi-log scale and fitted using an exponential decline model:
Where Ct—% of substrate remaining at time=t; C0—% of substrate remaining at time=0; t—time; T½—half-life The Half-life (T½) is determined by the following equation: […]
Assuming a first-order reaction, the slope (k) is extrapolated from the aforementioned plotted data.

In series [3] the test system is Human Rhinovirus 14 (HRV14) in H1-HeLa cells. Briefly: H1-HeLa HRV-CTG 384-well Assay (Ex. Y), HRV14. The note with it: Rhinovirus B, 96 h; H1-HeLa cells, HRV14 MOI 1.0, 4 days, Celltiter-Glo; read-out: EC50 H1-HeLa_HRV14_HRV-CTG 384-well Assay (per Ex Y). It counts as cell-based. The source says:
(§1) Example Y: H1-HeLa HRV-CTG 384-well Assay
(§2) H1-Hela cell line (ATCC, Manassas, VA, Cat #CRL-1958) was maintained in Dulbecco's […] (DMEM) (Corning, New York, NY, Cat #15-018CM) supplemented with 10% fetal bovine serum (FBS) (Hyclone, Logan, UT, Cat #SH30071-03), and 1× Penicillin-Streptomycin-L-Glutamine (Corning, New York, NY, Cat #30-009-CI). Cells were passaged 2 times per week to maintain sub-confluent densities and were used for experiments at passage 5-30. The Human Rhinovirus 1B (HRV1B) (ATCC, Manassas, VA, Cat #VR-1645) , Human Rhinovirus 14 (HRV14) (ATCC, Manassas, VA, Cat #VR-284), and Human Rhinovirus 16 (HRV16) (ATCC, Manassas, VA, Cat #BR-283) was obtained through ATCC. Viral infection was monitored by determining viability of H1-HeLa cells as described below.
(§3) Test molecules are prepared in 100% DMSO in 384-well polypropylene plates (Greiner, Monroe, NC, Cat #784201) with 8 compounds per plate in grouped replicates of 4 at 10 serially diluted concentrations (1:3). The serially diluted compounds were transferred to low dead volume Echo plates (Labcyte, Sunnyvale, CA, Cat #LP-0200).
(§4) The test compounds were spotted to 384-well assay plates (Greiner, Monroe, NC, Cat#781091) at 200 nL per well using an Echo acoustic dispenser (Labcyte, Sunnyvale, CA). H1-HeLa cells were harvested and suspended in DMEM (supplemented with 2% FBS and 1× Penicillin-Streptomycin-L-Glutamine) and seeded to the pre-spotted assay plates at 5,000 cells per well in 30 μL. HRV1B, HRV14, and HRV16 was diluted in DMEM (supplemented with 2% FBS and 1× Penicillin-Streptomycin-L-Glutamine) at 97.1 million Infectious Units (IU) per mL, 151 million IU per mL and 221 million IU per mL respectively. 10 μL of virus per well was added to the assay plates containing cells and compounds, for an MOI of 0.5, 1.0, and 0.25 respectively. The assay plates were incubated for 4 days at 37° C. and 5% CO2. At the end of incubation, Celltiter-Glo (Promega, Madison, WI, Cat #(Ga7573) was prepared. The assay plates and Celltiter-Glo reagent were equilibrated to room temperature for at least 15 minutes. 40 μL per well of Celltiter-Glo reagent was added and the plates were incubated at room temperature for 15 minutes before reading the luminescence signal on an EnVision multimode plate reader (Perkin Elmer, Waltham, MA). Rupintrivir was used as positive control and DMSO was used as negative control. Values were normalized to the positive and negative controls (as 0% and 100% replication, respectively) and data was fitted using non-linear regression analysis by Gilead's dose response tool. The EC50 value for each compound was defined as the concentration reducing viral replication by 50%.

Series [4] concerns Human Rhinovirus 1B (HRV1B) in H1-HeLa cells. Nature of the series: H1-HeLa HRV-CTG 384-well Assay (Ex. Y), HRV1B. It is filed as cell-based. The note with it: Rhinovirus A, 96 h; H1-HeLa cells, HRV1B MOI 0.5, 4 days, Celltiter-Glo; read-out: EC50 H1-HeLa_HRV1B_HRV-CTG 384-well Assay (per Ex. Y).
Excerpt: as §1, §2, §3, §4
In general terms: Cellular ATP, detected with luciferase, serves as a proxy for viable cell number.

SMILES strings stand for the structures.

One may read the EC50 as the concentration that produces a half-maximal response. With `CCC(=O)OC[C@@]1(C#N)O[C@@H](c2ccc3c(N)ncnn23)[C@H](O)[C@@H]1O` [Compound 5, ((2R,3S,4R,5S)-5-(4-aminopyrrolo[2,1-f][1,2,4]triazin-7-yl)-2-cyano-3,4-dihydroxytetrahydrofuran-2-yl)methyl propionate], the half-life at 2 μM was determined as 10 min in series [1] and 29 min in series [2]. The EC50 amounted to 10.5 µM in series [3] and 8.49 µM in series [4].

`Cc1ccc(C(=O)OC[C@@]2(C#N)O[C@@H](c3ccc4c(N)ncnn34)[C@H](O)[C@@H]2O)cc1` [Compound 14, ((2R,3S,4R,5S)-5-(4-aminopyrrolo[2,1-f][1,2,4]triazin-7-yl)-2-cyano-3,4-dihydroxytetrahydrofuran-2-yl)methyl 4-methylbenzoate]: the half-life at 2 μM was found to be 6 min in series [1] and 25 min in series [2]. The values for the EC50 in series [3] and in series [4] were 8.17 µM and 9.8 µM, respectively.

In the case of `N#C[C@]1(COC(=O)C2CC3(CCC3)C2)O[C@@H](c2ccc3c(N)ncnn23)[C@H](O)[C@@H]1O` [Compound 32, ((2R,3S,4R,5S)-5-(4-aminopyrrolo[2,1-f][1,2,4]triazin-7-yl)-2-cyano-3,4-dihydroxytetrahydrofuran-2-yl)methyl spiro[3.3]heptane-2-carboxylate], the half-life at 2 μM in series [1] stood at 2 min; in series [2] it was 12 min. Further, the results for the EC50 in series [3] and in series [4] were 5.14 µM and 3.18 µM, respectively.

As to `N#C[C@]1(COC(=O)C2CCCC2)O[C@@H](c2ccc3c(N)ncnn23)[C@H](O)[C@@H]1O` [Compound 18, ((2R,3S,4R,5S)-5-(4-aminopyrrolo[2,1-f][1,2,4]triazin-7-yl)-2-cyano-3,4-dihydroxytetrahydrofuran-2-yl)methyl cyclopentanecarboxylate], the figures for the half-life at 2 μM in series [1] and in series [2] were 3 min and 8 min, respectively. Besides, the EC50 in series [3] was determined as 6.93 µM; in series [4], 3.03 µM.

`N#C[C@]1(COC(=O)[C@H]2CCC(=O)O2)O[C@@H](c2ccc3c(N)ncnn23)[C@H](O)[C@@H]1O` [Compound 25, ((2R,3S,4R,5S)-5-(4-aminopyrrolo[2,1-f][1,2,4]triazin-7-yl)-2-cyano-3,4-dihydroxytetrahydrofuran-2-yl)methyl (R)-5-oxotetrahydrofuran-2-carboxylate]: the half-life at 2 μM came out at 5 min in series [1] and 3 min in series [2]. Moreover, the EC50 in series [3] was 6.01 µM; in series [4], 3.13 µM.

As to `CCC(CC)C(=O)OC[C@@]1(C#N)O[C@@H](c2ccc3c(N)ncnn23)[C@H](O)[C@@H]1O` [Compound 9, ((2R,3S,4R,5S)-5-(4-aminopyrrolo[2,1-f][1,2,4]triazin-7-yl)-2-cyano-3,4-dihydroxytetrahydrofuran-2-yl)methyl 2-ethylbutanoate], the half-life at 2 μM in series [1] was 23 min; in series [2], 55 min. For the same compound, the EC50 came out at 15.5 µM in series [3] and 21.6 µM in series [4].

As for `N#C[C@]1(COC(=O)C2CCC2)O[C@@H](c2ccc3c(N)ncnn23)[C@H](O)[C@@H]1O` [Compound 8, ((2R,3S,4R,5S)-5-(4-aminopyrrolo[2,1-f][1,2,4]triazin-7-yl)-2-cyano-3,4-dihydroxytetrahydrofuran-2-yl)methyl cyclobutanecarboxylate], the half-life at 2 μM was determined as 2 min in series [1] and 4 min in series [2]. Further, the figures for the EC50 in series [3] and in series [4] were 5.66 µM and 3.34 µM, respectively.

As to `CCC(CC)C(=O)Nc1ncnn2c([C@@H]3O[C@](C#N)(COC(=O)C(CC)CC)[C@@H](O)[C@H]3O)ccc12` [Compound 11, ((2R,3S,4R,5S)-2-cyano-5-(4-(2-ethylbutanamido)pyrrolo[2,1-f][1,2,4]triazin-7-yl)-3,4-dihydroxytetrahydrofuran-2-yl)methyl 2-ethylbutanoate], the half-life at 2 μM is 37 min in series [1] and 56 min in series [2]. The EC50 in series [3] and in series [4] was 50 µM each time.

Consider `CC(C)(C)CC(=O)OC[C@@]1(C#N)O[C@@H](c2ccc3c(N)ncnn23)[C@H](O)[C@@H]1O` [Compound 13, ((2R,3S,4R,5S)-5-(4-aminopyrrolo[2,1-f][1,2,4]triazin-7-yl)-2-cyano-3,4-dihydroxytetrahydrofuran-2-yl)methyl 3,3-dimethylbutanoate], for which the figures for the half-life at 2 μM in series [1] and in series [2] were 185 min and 789 min, respectively. In addition, the EC50 in series [3] and in series [4] was 50 µM in each case.

Turning to `CCC(C)(C)C(=O)OC[C@@]1(C#N)O[C@@H](c2ccc3c(N)ncnn23)[C@H](O)[C@@H]1O` [Compound 35, ((2R,3S,4R,5S)-5-(4-aminopyrrolo[2,1-f][1,2,4]triazin-7-yl)-2-cyano-3,4-dihydroxytetrahydrofuran-2-yl)methyl 2,2-dimethylbutanoate], the values for the half-life at 2 μM in series [1] and in series [2] were 124 min and 273 min, respectively. In addition, the results for the EC50 in series [3] and in series [4] were 24.6 µM and 19.2 µM, respectively.

Turning to `CCCC(=O)OC[C@@]1(C#N)O[C@@H](c2ccc3c(N)ncnn23)[C@H](O)[C@@H]1O` [Compound 6, ((2R,3S,4R,5S)-5-(4-aminopyrrolo[2,1-f][1,2,4]triazin-7-yl)-2-cyano-3,4-dihydroxytetrahydrofuran-2-yl)methyl butyrate], the half-life at 2 μM in series [1] was determined as 4 min; in series [2], 8 min. For the same compound, the results for the EC50 in series [3] and in series [4] were 7.86 µM and 4.11 µM, respectively.
